Data on 32 molecules can be found in ChEMBL document CHEMBL5236620, “Discovery of 2-Amino-7-sulfonyl-7H-pyrrolo[2,3-d]pyrimidine Derivatives as Potent Reversible FGFR Inhibitors with Gatekeeper Mutation Tolerance: Design, Synthesis, and Biological Evaluation” (J Med Chem, 2022).

Calls of active or inactive are those of the source. The calls are words filed in the database; no cut-off is given here. A value given as a limit tells only on which side of the number the result lay.

Series [1] deals with Fibroblast growth factor receptor 4 (Homo sapiens, UniProt P22455).
Description: Inhibition of FGFR4 (unknown origin) using TK as substrate incubated for 1 hr in presence of biotin/ATP by HTRF assay
Series [2] deals with BaF3. Nature of the series: Cytotoxicity against mouse BaF3 cells assessed as inhibition of cell growth incubated for 72 hrs by CCK-8 assay. In kind it is functional, cell-based. The following applies: BaF3, 72 h.
For series [3], the system named is BaF3. The series is described as follows: Cytotoxicity against mouse BaF3 cells expressing wild type TEL-fused FGFR4 assessed as inhibition of cell growth incubated for 72 hrs by CCK-8 assay. In kind it is functional, cell-based. The following applies: BaF3, 72 h.
Series [4] relates to BaF3. Nature of the series: Cytotoxicity against mouse BaF3 cells expressing TEL-fused FGFR4 V550L mutant assessed as inhibition of cell growth incubated for 72 hrs by CCK-8 assay. In kind it is functional, cell-based. The following applies: BaF3, 72 h.
Another series has as its system Huh-7. The series is described as follows: cells. The following applies: Homo sapiens, Huh-7, 72 h.
A short description of series [5]: in vitro. The following applies: human, liver microsomes.
Description: Metabolic stability in human liver microsomes assessed as half life pretreated for 5 mins followed by NADPH addition and measured for 45 mins by LC/MS analysis
Series [6] is described as follows: in vitro. The following applies: human, liver microsomes. The source holds these as a separate data set.
Description: Metabolic stability in human liver microsomes assessed as intrinsic clearance pretreated for 5 mins followed by NADPH addition and measured for 45 mins by LC/MS analysis
A short description of series [7]: in vitro. The following applies: mouse, liver microsomes.
Description: Metabolic stability in mouse liver microsomes assessed as half life pretreated for 5 mins followed by NADPH addition and measured for 45 mins by LC/MS analysis
Series [8] in a line: in vitro. The following applies: mouse, liver microsomes. The source holds these as a separate data set.
Description: Metabolic stability in mouse liver microsomes assessed as intrinsic clearance pretreated for 5 mins followed by NADPH addition and measured for 45 mins by LC/MS analysis
Series [9] can be described thus: in vitro. The following applies: human.
Description: Metabolic stability in human assessed as intrinsic clearance
The nature of series [10]: in vitro. The following applies: mouse.
Description: Metabolic stability in mouse assessed as intrinsic clearance
Series [11] deals with Fibroblast growth factor receptor 2 (Homo sapiens, UniProt P21802).
Description: Inhibition of FGFR2 (unknown origin) using TK as substrate incubated for 1 hr in presence of biotin/ATP by HTRF assay
Series [12] has as its target Fibroblast growth factor receptor 3 (Homo sapiens, UniProt P22607).
Description: Inhibition of FGFR3 (unknown origin) using TK as substrate incubated for 1 hr in presence of biotin/ATP by HTRF assay
The target in series [13] is Fibroblast growth factor receptor 4 (Mus musculus) (UniProt Q03142). The following applies: BaF3, dose 50-400 nM, time 4.0 hrs.
Series [14] shares this target. The following applies: BaF3, dose 50-400 nM, time 4.0 hrs. The source holds these as a separate data set.
The target is the same in series [15]. The following applies: BaF3, dose 50-400 nM, time 4.0 hrs. The source holds these as a separate data set.
The target in series [16] is Janus Kinase (JAK) (Homo sapiens) (UniProt P52333+P23458+O60674+P29597). The following applies: dose 500.0 nM.
Description: Inhibition of JAK (unknown origin) at 500 nM

Sequence of Fibroblast growth factor receptor 4 (Mus musculus) (Q03142 17-799 limits assumed): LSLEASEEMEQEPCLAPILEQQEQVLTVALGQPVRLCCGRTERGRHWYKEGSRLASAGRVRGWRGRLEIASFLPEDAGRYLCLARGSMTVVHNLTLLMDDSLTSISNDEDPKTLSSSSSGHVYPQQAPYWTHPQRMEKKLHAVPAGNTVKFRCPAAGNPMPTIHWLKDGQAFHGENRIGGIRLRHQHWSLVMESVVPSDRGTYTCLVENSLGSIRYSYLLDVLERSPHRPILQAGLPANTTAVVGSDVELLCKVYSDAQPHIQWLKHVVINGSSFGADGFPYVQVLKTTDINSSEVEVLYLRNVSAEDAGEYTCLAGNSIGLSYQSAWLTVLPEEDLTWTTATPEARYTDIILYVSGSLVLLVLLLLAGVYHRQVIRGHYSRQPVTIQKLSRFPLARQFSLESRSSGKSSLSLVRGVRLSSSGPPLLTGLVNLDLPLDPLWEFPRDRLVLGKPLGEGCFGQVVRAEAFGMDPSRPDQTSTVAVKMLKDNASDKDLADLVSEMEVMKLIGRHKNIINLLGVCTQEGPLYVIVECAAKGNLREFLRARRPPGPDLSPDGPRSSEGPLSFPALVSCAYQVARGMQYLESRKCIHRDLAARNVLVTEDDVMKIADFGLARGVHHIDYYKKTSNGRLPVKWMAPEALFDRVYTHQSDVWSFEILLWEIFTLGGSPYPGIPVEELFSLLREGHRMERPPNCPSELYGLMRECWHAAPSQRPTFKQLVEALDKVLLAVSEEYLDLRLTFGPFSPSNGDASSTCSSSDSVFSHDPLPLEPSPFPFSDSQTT
Sequence of Fibroblast growth factor receptor 4 (P22455 whole entry): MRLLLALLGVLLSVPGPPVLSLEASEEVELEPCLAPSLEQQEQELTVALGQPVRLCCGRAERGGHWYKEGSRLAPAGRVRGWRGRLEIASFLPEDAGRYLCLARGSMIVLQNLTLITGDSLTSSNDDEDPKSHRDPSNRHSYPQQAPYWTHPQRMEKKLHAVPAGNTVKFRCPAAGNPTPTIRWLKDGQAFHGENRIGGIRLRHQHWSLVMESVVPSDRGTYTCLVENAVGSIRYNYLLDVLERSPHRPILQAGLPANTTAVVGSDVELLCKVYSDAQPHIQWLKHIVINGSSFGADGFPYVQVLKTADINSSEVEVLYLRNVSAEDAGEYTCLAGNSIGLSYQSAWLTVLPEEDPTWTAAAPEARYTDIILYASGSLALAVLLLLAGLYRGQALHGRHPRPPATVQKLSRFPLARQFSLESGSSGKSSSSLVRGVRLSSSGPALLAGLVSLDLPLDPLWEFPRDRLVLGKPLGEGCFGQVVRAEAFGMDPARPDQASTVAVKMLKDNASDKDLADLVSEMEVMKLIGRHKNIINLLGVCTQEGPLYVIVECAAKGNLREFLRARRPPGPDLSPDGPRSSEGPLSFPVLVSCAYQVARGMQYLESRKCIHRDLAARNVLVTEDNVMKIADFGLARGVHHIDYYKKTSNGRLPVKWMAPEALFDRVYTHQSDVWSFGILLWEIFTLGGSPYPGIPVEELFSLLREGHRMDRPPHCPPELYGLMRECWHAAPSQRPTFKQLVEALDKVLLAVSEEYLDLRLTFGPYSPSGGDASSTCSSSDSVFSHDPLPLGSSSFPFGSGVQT
Sequence of Fibroblast growth factor receptor 3 (P22607 whole entry): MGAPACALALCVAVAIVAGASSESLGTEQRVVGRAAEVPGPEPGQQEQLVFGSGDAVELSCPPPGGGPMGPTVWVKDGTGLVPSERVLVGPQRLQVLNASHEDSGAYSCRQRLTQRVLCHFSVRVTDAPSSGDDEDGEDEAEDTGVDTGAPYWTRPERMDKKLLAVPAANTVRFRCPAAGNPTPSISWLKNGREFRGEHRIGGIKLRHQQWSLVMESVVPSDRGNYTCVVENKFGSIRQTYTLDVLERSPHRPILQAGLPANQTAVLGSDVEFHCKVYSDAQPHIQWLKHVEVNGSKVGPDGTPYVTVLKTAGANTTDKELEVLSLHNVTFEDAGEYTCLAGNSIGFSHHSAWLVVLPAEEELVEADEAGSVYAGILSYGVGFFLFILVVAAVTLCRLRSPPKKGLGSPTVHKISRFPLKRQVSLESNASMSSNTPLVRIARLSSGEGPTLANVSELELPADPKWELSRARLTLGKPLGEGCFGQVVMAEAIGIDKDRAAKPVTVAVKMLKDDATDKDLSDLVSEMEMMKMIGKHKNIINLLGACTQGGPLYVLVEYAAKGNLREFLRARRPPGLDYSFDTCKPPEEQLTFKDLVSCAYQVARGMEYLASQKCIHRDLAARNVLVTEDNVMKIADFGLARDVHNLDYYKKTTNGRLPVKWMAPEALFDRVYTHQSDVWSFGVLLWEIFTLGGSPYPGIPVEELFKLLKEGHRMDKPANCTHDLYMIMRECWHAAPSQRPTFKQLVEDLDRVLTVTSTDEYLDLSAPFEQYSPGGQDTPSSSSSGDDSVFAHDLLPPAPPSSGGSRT
Sequence of Fibroblast growth factor receptor 2 (P21802 whole entry): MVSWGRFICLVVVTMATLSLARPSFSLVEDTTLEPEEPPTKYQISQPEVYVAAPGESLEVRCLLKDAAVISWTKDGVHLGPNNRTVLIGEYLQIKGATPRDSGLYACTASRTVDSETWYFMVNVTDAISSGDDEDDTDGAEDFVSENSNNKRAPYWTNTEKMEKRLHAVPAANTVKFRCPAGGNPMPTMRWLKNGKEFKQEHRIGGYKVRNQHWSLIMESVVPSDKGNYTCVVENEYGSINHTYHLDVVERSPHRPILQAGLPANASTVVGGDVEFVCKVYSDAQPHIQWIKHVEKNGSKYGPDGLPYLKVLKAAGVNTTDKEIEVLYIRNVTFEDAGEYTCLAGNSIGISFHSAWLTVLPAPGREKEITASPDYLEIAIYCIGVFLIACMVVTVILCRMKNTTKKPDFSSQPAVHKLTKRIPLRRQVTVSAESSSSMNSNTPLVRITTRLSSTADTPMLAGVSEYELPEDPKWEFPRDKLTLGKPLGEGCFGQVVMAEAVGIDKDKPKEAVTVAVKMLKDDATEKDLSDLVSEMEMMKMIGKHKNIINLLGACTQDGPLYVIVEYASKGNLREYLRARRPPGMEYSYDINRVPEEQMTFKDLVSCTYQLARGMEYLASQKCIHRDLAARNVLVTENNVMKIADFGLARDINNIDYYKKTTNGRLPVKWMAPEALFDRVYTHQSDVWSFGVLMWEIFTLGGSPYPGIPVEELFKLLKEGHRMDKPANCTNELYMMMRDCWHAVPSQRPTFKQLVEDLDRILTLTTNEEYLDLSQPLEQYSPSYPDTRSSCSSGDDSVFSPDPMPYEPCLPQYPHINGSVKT
Description for Huh-7: Cytotoxicity against human Huh-7 cells assessed as inhibition of cell growth incubated for 72 hrs by CellTiter-Glo assay

For the molecule `CN1CCN(c2ccc(Nc3ncc4ccn(S(=O)(=O)c5ccccc5)c4n3)cc2)CC1`, the IC50 in [1] was 74.7 nM.
`CN1CCN(c2ccc(Nc3ncc4ccn(S(=O)(=O)c5ccn(C)n5)c4n3)cc2)CC1`: in series [1], the IC50 amounted to 127 nM.
In [1], `COc1cccc(S(=O)(=O)c2c[nH]c3cnc(Nc4ccc(N5CCOCC5)cc4)nc23)c1` showed an IC50 of 1970 nM.
As for `COc1cccc(S(=O)(=O)n2ccc3cnc(Nc4ccc(N5C[C@@H]6C[C@H]5CN6C)cc4)nc32)c1`, the IC50 in the series on BaF3 [2] was over 2000 nM; with BaF3 [3], 126 nM; with BaF3 [4], 632 nM; in series [1] it was 47.5 nM; in the series with Huh-7 it was 166 nM. Besides, the results for the half-life at 50 min in the series “in vitro [5]” and in the series “in vitro [7]” were 224 min and 13.1 min, respectively. Further, the microsomal CLint at 50 min in “in vitro [6]” came to 6.4 µL/min/mg; in the series “in vitro [8]” it was 106 µL/min/mg. The CLint scaled was 6 mL/min/kg in the series “in vitro [9]” and 416 mL/min/kg in “in vitro [10]”.
`COc1cccc(S(=O)(=O)n2ccc3cnc(Nc4ccc(CN5CCN(C)CC5)cc4)nc32)c1` had a 50% inhibitory concentration (IC50) in series [1] of 132 nM.
Consider `COc1cccc(S(=O)(=O)n2ccc3cnc(Nc4ccc(N5CCN(C)CC5)cc4)nc32)c1`, for which the IC50 in the series on BaF3 [2] is over 2000 nM; in the series with BaF3 [3] it was 71.8 nM; in the series on BaF3 [4] it was 534 nM; in series [1], 10.4 nM; in the series with Huh-7, 131 nM. Further, the figures for the half-life at 50 min in the series “in vitro [5]” and in “in vitro [7]” were 39 min and 4.2 min, respectively. Also, the microsomal CLint at 50 min in the series “in vitro [6]” was determined as 35.5 µL/min/mg; in the series “in vitro [8]”, 165 µL/min/mg. Moreover, the CLint scaled turned out to be 32 mL/min/kg in “in vitro [9]” and 654 mL/min/kg in “in vitro [10]”.
In the case of `C=CC(=O)N[C@H]1CCOC[C@H]1Nc1ncc2cc(-c3c(Cl)c(OC)cc(OC)c3Cl)ccc2n1` [FISOGATINIB], the IC50 in series [1] is 5.3 nM; with Huh-7, 45.9 nM.
For the molecule `COc1cccc(S(=O)(=O)n2ccc3cnc(Nc4ccc(N(C)CCN(C)C)cc4)nc32)c1`, the figures for the IC50 (in series [1]; in the series on Huh-7) were 17.1 nM and 811 nM, respectively.
Take `CN1CCN(c2ccc(Nc3ncc4ccn(S(=O)(=O)c5cccc(OC(F)(F)F)c5)c4n3)cc2)CC1`: the IC50 in series [1] came to 703 nM.
On to `CN1CCN(c2ccc(Nc3ncc4ccn(S(=O)(=O)c5ccccc5OC(F)(F)F)c4n3)cc2)CC1`, for which the results for the half-inhibitory concentration (IC50) (in [1]; in the series on Huh-7) were 36.8 nM and 444 nM, respectively.
The molecule `CN1CCN(c2ccc(Nc3ncc4ccn(S(=O)(=O)C5CCCCC5)c4n3)cc2)CC1` returned an IC50 in [1] of 615 nM.
Same read-out and setting: under `COc1cccc(S(=O)(=O)Nc2cc(Nc3ccc(N4CCOCC4)cc3)ncc2C#N)c1` stands over 10000 nM.
Regarding `CN1CCN(c2ccc(Nc3ncc4ccn(S(=O)(=O)c5ccccc5Cl)c4n3)cc2)CC1`, the IC50 in [1] was 33.6 nM; with Huh-7, 451 nM.
In turn, `COc1cccc(S(=O)(=O)n2ccc3cnc(Nc4ccc(N5CCOCC5)cc4)nc32)c1` had an IC50 in series [1] of 114 nM.
`COc1ccc(Cl)c(S(=O)(=O)n2ccc3cnc(Nc4ccc(N5CCN(C)CC5)cc4)nc32)c1`: the IC50 in series [1] turned out to be 29 nM; in the series with Huh-7, 298 nM.
Take `COc1cc(OC)cc(S(C)(=O)=Nc2cc(Nc3ccc(N4CCOCC4)cc3)ncc2C#N)c1` (stereo not given): half-maximal inhibition in [1] (IC50) required 2190 nM.
On the same count and under the same terms, under `COc1cccc(S(=O)(=O)n2ccc3cnc(Nc4ccc(N5CCN(C)CC5)cc4)nc32)c1OC` stands 1340 nM.
In the case of `COc1ccc(OC)c(S(=O)(=O)n2ccc3cnc(Nc4ccc(N5CCN(C)CC5)cc4)nc32)c1`, the IC50 in the series on BaF3 [2] is over 2000 nM; in the series with BaF3 [3], 58.3 nM; in the series on BaF3 [4], 405 nM; in [1], 8.7 nM; with Huh-7, 244 nM. Further, the half-life at 50 min was found to be 47.7 min in the series “in vitro [5]” and 4.9 min in the series “in vitro [7]”. The intrinsic clearance (microsomal CLint) at 50 min in the series “in vitro [6]” was 40.5 µL/min/mg; in the series “in vitro [8]”, 283 µL/min/mg. The CLint scaled in “in vitro [9]” is 36.5 mL/min/kg; in the series “in vitro [10]”, 1110 mL/min/kg.
For the molecule `COc1cccc(S(=O)(=O)n2ccc3cnc(Nc4ccc(N5CCC(N(C)C)C5)cc4)nc32)c1` (stereo not given), the half-maximal inhibitory concentration (IC50) is 41.8 nM in [1] and 301 nM in the series with Huh-7.
Take `COc1ccc(S(=O)(=O)n2ccc3cnc(Nc4ccc(N5CCN(C)CC5)cc4)nc32)cc1`: in series [1], half-maximal inhibition (IC50) required 893 nM.
With `CN1CCN(c2ccc(Nc3ncc4ccn(S(=O)(=O)c5cccc(F)c5)c4n3)cc2)CC1`, inhibition in series [1] was half-maximal at 60.5 nM (IC50).
Regarding `COc1cccc(S(=O)(=O)n2ccc3cnc(Nc4ccc(C(=O)N5CCN(C)CC5)cc4)nc32)c1`, the IC50 in [1] worked out at 112 nM; in the series with Huh-7, 449 nM.
Take `COc1cccc(S(=O)(=O)n2ccc3cnc(Nc4ccc(N5C[C@@H](C)N[C@@H](C)C5)cc4)nc32)c1`: the values for the IC50 in series [1], in [11] and in [12] were 17.1 nM, 46.7 nM and 29.6 nM, respectively. The inhibition entry in series [13], in series [14] and in [15] was “Dose-Dependent Effect” throughout. Moreover, the inhibition result in series [16] is “Active”.
On to `CN1CCN(c2ccc(Nc3ncc4ccn(S(=O)(=O)c5cc(F)cc(F)c5)c4n3)cc2)CC1`, for which the IC50 with BaF3 [2] is over 2000 nM; with BaF3 [3], 64 nM; in the series on BaF3 [4], 376 nM; in [1], 12.7 nM; in the series with Huh-7 it was 191 nM. The half-life at 50 min turned out to be 35.2 min in “in vitro [5]” and 4.4 min in “in vitro [7]”. Besides, the microsomal CLint at 50 min came out at 54.8 µL/min/mg in the series “in vitro [6]” and 319 µL/min/mg in the series “in vitro [8]”. In addition, the CLint scaled in the series “in vitro [9]” was 49.4 mL/min/kg; in the series “in vitro [10]”, 1250 mL/min/kg.
Regarding `COc1cccc(S(C)(=O)=Nc2cc(Nc3ccc(N4CCOCC4)cc3)ncc2C#N)c1` (stereo not given), in [1], half-maximal inhibition (IC50) required 346 nM.
For the molecule `COc1ccccc1S(=O)(=O)n1ccc2cnc(Nc3ccc(N4CCN(C)CC4)cc3)nc21`, the IC50 in series [1] was 16.1 nM; in the series with Huh-7, 240 nM.
For `CN1CCN(c2ccc(Nc3ncc4ccn(S(=O)(=O)c5cccc6c5OCO6)c4n3)cc2)CC1` the same measures were 29.5 nM and 534 nM.
The molecule `COc1cccc(S(=O)(=O)c2cnc3cnc(Nc4ccc(N5CCOCC5)cc4)cn23)c1` had a half-inhibitory concentration (IC50) in series [1] of 4770 nM.
In the case of `CN1CCN(c2ccc(Nc3ncc4ccn(S(=O)(=O)c5c(Cl)cccc5Cl)c4n3)cc2)CC1`, the IC50 in series [1] was found to be 55 nM; in the series on Huh-7 it was 377 nM.
For `COc1cccc(S(=O)(=O)n2ccc3cnc(Nc4ccc(N5CCC(N(C)C)CC5)cc4)nc32)c1`, the IC50 worked out at 13.9 nM in [1] and 310 nM in the series on Huh-7.
For `CN1CCN(c2ccc(Nc3ncc4ccn(S(=O)(=O)c5cccnc5)c4n3)cc2)CC1`, in that order: 33 nM and 383 nM.
In the case of `COc1cccc(S(=O)(=O)n2ccc3cnc(Nc4ccc(N5CCOCC5)cc4)cc32)c1`, in [1], the IC50 came to 198 nM.
